The structures appear in SMILES notation.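 Interpolation was linear, between the two tested concentrations surrounding the appropriate level; five concentrations were tested over 48 hours in 96-well plates. Abbreviation: GI50, concentration required for 50% inhibition of growth.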 Calls of active or inactive are those of the source. Rule as the data show it: active = GI50 up to about 1.1 µM and inactive = higher.

Holding throughout (experiment): NCI anticancer screen, dose series, 48 h
Test [1] has as its system SF-539.
Test [2] concerns LOX IMVI.
Test [3] deals with MOLT-4.
Test [4] deals with NCI-H23.
In test [5] the test system is NCI-H460.
The subject of test [6] is COLO 205.
The subject of test [7] is Malme-3M.
In test [8] the test system is CCRF-CEM.
Test [9] deals with OVCAR-8.
Test [10] concerns SNB-19.
Test [11] deals with HOP-62.
Test [12] concerns OVCAR-3.
Test [13] has as its system SN12C.
In test [14] the test system is UACC-62.
Test [15] deals with SNB-75.
In test [16] the test system is SK-MEL-28.
Test [17] has as its system IGROV-1.
Test [18] has as its system SK-MEL-2.
Test [19] deals with SF-295.
In test [20] the test system is CAKI-1.

As for `COc1ccc(N2C(=O)C3c4[nH]c5cc(C)ccc5c4C4CCC(C(C)(C)C)CC4C3C2=O)cc1` (configuration not stated), the GI50 in test [1] is 4.19 µM (inactive); in [2], 7.24 µM (inactive); in test [3], > 10 µM (inactive); in [4] it was > 10 µM (inactive); in test [5], 7.62 µM (inactive); in [6], > 10 µM (inactive). In addition, the GI50 is > 10 µM (inactive) in test [7]; > 10 µM (inactive) in test [8]; 4.88 µM (inactive) in test [9]; > 10 µM (inactive) in test [10]; 7.6 µM (inactive) in test [11]; > 10 µM (inactive) in test [12]. In addition, the GI50 in test [13] was > 10 µM (inactive); in test [14] it was 6.19 µM (inactive); in test [15] it was 2.59 µM (inactive); in test [16], > 10 µM (inactive); in test [17] it was > 10 µM (inactive); in test [18], > 10 µM (inactive). Further, the GI50 in test [19] was 7.08 µM (inactive); in test [20], > 10 µM (inactive).
For `NC(=S)N/N=C/c1ccc(OC(=O)COc2ccccc2Cl)cn1`, the GI50 is 14.3 µM (inactive) in test [1]; 27.6 µM (inactive) in test [2]; 16.3 µM (inactive) in [3]; 12.9 µM (inactive) in test [4]; 35.2 µM (inactive) in test [5]; 44.6 µM (inactive) in test [6]. In addition, the GI50 in test [7] was 24.4 µM (inactive); in test [8] it was 6.1 µM (inactive); in [9] it was 15.7 µM (inactive); in test [10], 47.8 µM (inactive); in test [11], 20.5 µM (inactive); in test [12], 23.2 µM (inactive). The GI50 was 30.5 µM (inactive) in test [13]; 14.6 µM (inactive) in test [14]; > 54.6 µM (inactive) in test [15]; 65 µM (inactive) in [16]; > 93.1 µM (inactive) in [17]; 42.3 µM (inactive) in test [18]. The GI50 in [19] was > 62.7 µM (inactive); in test [20], 44.2 µM (inactive).
Consider `CC1OC(OC2C(OC(=O)[C@@H]3CC(C)(C)C[C@H]4C5=CC[C@@H]6[C@@]7(C)C[C@H](O)[C@H](OC8OC(CO)C(O)C(O)C8O)[C@@](C)(CO)[C@@H]7[C@H](O)C[C@@]6(C)[C@]5(C)CC[C@@]34C)OCC(O)C2O)C(O)C(O)C1O` (some centres not stated), for which the GI50 in test [1], in test [2], in test [3], in test [4], in [5] and in [6] was > 7.5 µM (inactive) throughout. In addition, the GI50 in test [7], in test [8], in [9], in test [10], in test [11] and in test [12] was > 7.5 µM (inactive) in each case. Moreover, the GI50 in test [13], in test [14], in test [15], in [17], in test [18] and in test [19] was > 7.5 µM (inactive) throughout. The GI50 in [20] is > 7.5 µM (inactive).
For `C=CC(OCC)(OCC)OCC`, the GI50 is > 100 µM (inactive) in test [1]; 66.2 µM (inactive) in test [2]; > 100 µM (inactive) in test [3]; > 100 µM (inactive) in test [4]; > 100 µM (inactive) in [5]; > 100 µM (inactive) in test [6]. Also, the GI50 in test [7], in [8], in [9], in [10], in test [11] and in [12] was > 100 µM (inactive) throughout. For the same compound, the GI50 in [13], in test [14], in test [15], in test [16], in test [17] and in [18] was > 100 µM (inactive) in each case. For the same compound, the GI50 in [19] and in test [20] was > 100 µM (inactive) in each case.
Turning to `CC1CC2C3CC(F)C4=CC(=O)C=CC4(C)C3(F)C(O)CC2(C)C1(O)C(=O)COC(=O)C(C)(C)C` (configuration not stated), the GI50 in test [1] is 87.5 µM (inactive); in [2] it was > 100 µM (inactive); in [3], 66.2 µM (inactive); in test [4] it was > 100 µM (inactive); in test [5] it was 47 µM (inactive); in test [6], > 100 µM (inactive). Moreover, the GI50 in [7] was > 100 µM (inactive); in test [8], 0.0203 µM (active); in test [10], 64.3 µM (inactive); in test [11], 75.7 µM (inactive); in test [12], > 100 µM (inactive); in [14], > 100 µM (inactive). For the same compound, the GI50 in test [15] is 82.2 µM (inactive); in [16] it was 37.2 µM (inactive); in [17] it was 64.1 µM (inactive); in test [18], > 100 µM (inactive); in test [19] it was 61.7 µM (inactive); in test [20], > 100 µM (inactive).
Regarding `O=C1OC(=O)C2C1C(c1ccccc1[N+](=O)[O-])C=C(c1ccco1)N2c1ccncc1` (configuration not stated), the GI50 was 4.65 µM (inactive) in [1]; 1.87 µM (inactive) in [2]; 1.88 µM (inactive) in test [3]; 11.3 µM (inactive) in test [4]; 12.1 µM (inactive) in [5]; 7.98 µM (inactive) in test [6]. Moreover, the GI50 in test [7] is 25.1 µM (inactive); in test [8] it was 2.29 µM (inactive); in test [9], 10.7 µM (inactive); in [10], 8.39 µM (inactive); in [11] it was 15.3 µM (inactive); in test [12], 11.9 µM (inactive). The GI50 was 8.95 µM (inactive) in test [13]; 16.9 µM (inactive) in test [14]; 14 µM (inactive) in test [15]; 8.34 µM (inactive) in test [16]; 2.09 µM (inactive) in [17]; 13.9 µM (inactive) in test [18]. In addition, the figures for the GI50 in test [19] and in test [20] were 10.3 µM (inactive) and 16 µM (inactive), respectively.
As to `Cn1cnnc1Sc1c([N+](=O)[O-])nc(-c2ccc([N+](=O)[O-])cc2)n1C`, the GI50 was 16.7 µM (inactive) in [1]; 13.6 µM (inactive) in test [2]; 14.6 µM (inactive) in test [3]; 18.2 µM (inactive) in test [4]; 36.1 µM (inactive) in [5]; 14.9 µM (inactive) in test [6]. In addition, the GI50 is 14.9 µM (inactive) in [7]; 10.3 µM (inactive) in test [8]; 18.1 µM (inactive) in [9]; > 100 µM (inactive) in test [10]; > 100 µM (inactive) in test [11]; 17 µM (inactive) in [12]. Moreover, the GI50 was 16.1 µM (inactive) in test [13]; 16.5 µM (inactive) in test [14]; 31.3 µM (inactive) in [15]; 16 µM (inactive) in [16]; 17.5 µM (inactive) in test [17]; 15.1 µM (inactive) in test [18]. Besides, the figures for the GI50 in test [19] and in [20] were > 100 µM (inactive) and 32.7 µM (inactive), respectively.
Consider `Nc1c(Cl)c([N+](=O)[O-])cc2c1OCCCCO2`, for which the GI50 was > 100 µM (inactive) in [1]; 61.4 µM (inactive) in test [2]; > 100 µM (inactive) in test [3]; > 100 µM (inactive) in [4]; > 100 µM (inactive) in test [5]; > 100 µM (inactive) in test [6]. For the same compound, the GI50 in test [7] was > 100 µM (inactive); in test [8], 79.6 µM (inactive); in test [9] it was > 100 µM (inactive); in [10], > 10 µM (inactive); in test [11] it was > 100 µM (inactive); in test [12], > 100 µM (inactive). Besides, the GI50 in [13] is > 100 µM (inactive); in test [14] it was 95.5 µM (inactive); in [15] it was 23.8 µM (inactive); in test [16] it was > 100 µM (inactive); in test [17], 40.5 µM (inactive); in test [18], > 100 µM (inactive). Besides, the results for the GI50 in [19] and in test [20] were > 100 µM (inactive) and 56.4 µM (inactive), respectively.
`COC(=O)C1=CC[C@@H]2C(C(=O)O)=CO[C@@H](OC3OC(CO)C(O)C(O)C3O)[C@H]12` (some centres not stated): the GI50 in test [1], in test [2], in test [3], in test [4], in [5] and in test [6] was > 300 µM (inactive) throughout. Also, the GI50 in test [7] was > 263 µM (inactive); in [8], > 119 µM (inactive); in [9], > 300 µM (inactive); in test [10], > 300 µM (inactive); in [11], > 300 µM (inactive); in test [12], > 300 µM (inactive). The GI50 in test [13], in test [14], in test [15], in test [16], in [17] and in [18] was > 300 µM (inactive) in each case. The GI50 in test [19] was > 150 µM (inactive); in test [20] it was > 300 µM (inactive).
`COc1cc(OC)c(SSCCCCS(=O)O)c(OC)c1`: the GI50 was 16.1 µM (inactive) in [1]; 10.7 µM (inactive) in [2]; 6.78 µM (inactive) in test [3]; 15.4 µM (inactive) in test [4]; 17.1 µM (inactive) in [5]; 17.5 µM (inactive) in test [6]. Besides, the GI50 is 12.2 µM (inactive) in [7]; 5.45 µM (inactive) in test [8]; 16 µM (inactive) in test [9]; 17.5 µM (inactive) in [10]; 26.2 µM (inactive) in [11]; 15.1 µM (inactive) in test [12]. The GI50 in test [13] was 17.6 µM (inactive); in test [14], 13.7 µM (inactive); in test [15], 10.6 µM (inactive); in [16] it was 15 µM (inactive); in test [17], 21 µM (inactive); in test [18] it was 19.5 µM (inactive). For the same compound, the results for the GI50 in test [19] and in test [20] were 13.6 µM (inactive) and > 10 µM (inactive), respectively.

The record behind these values is ChEMBL document CHEMBL1201862, “PubChem BioAssay data set” (2004).
